# Test results reported in patent US7714158B2, “Ibandronate polymorph” (Hoffmann-La Roche Inc., priority 2005, dated 2010).
# Legend:
# [1] = Relative thermodynamic stability of Ibandronate polymorphs; details: compared with polymorph B
# [2] = Solubility measurement of crystalline Ibandronate polymorphs by suspension and complexometric titration; format: physicochemical; details: Polymorph A; water; 25° C., 24 h stirred + 24 h unstirred; listed as Ibandronate polymorph A, monosodium salt monohydrate
# Description: The solubility of the individual crystalline Ibandronate polymorphs A and B was measured for various solutions. Approximately 10 g of the corresponding polymorph A or B were suspended in three different buffer solutions at pH 2, pH 4 (Titrisol-buffer, citrate/HCl), at pH 7 (methenamine buffer, HCl) or in water. The suspension was stirred for 24 hours at 25° C. and was kept additionally 24 hours without stirring at the same temperature. Solubility was calculated by titration according to the following method.
# The residue was filtered, 2 ml of the filtrate taken, 5 ml of Titriplex III solution were added and diluted with water to 100 ml. 2 ml of this solution were added to approximately 0.1 ml of xylenol orange indicator and the pH was adjusted to 6.5 by adding small portions of methenamine buffer solution or 0.1 M hydrochloric acid. The solution is titrated immediately with Th-DCTA-xylenol orange complex until the color changes from yellow to reddish-violet. The endpoint is determined photometrically.
structure (smiles),measurement,setting,value
"CCCCCN(C)CCC(O)(P(=O)([O-])O)P(=O)(O)O.O.[Na+] [Polymorph A, 3-(N-methyl-N-pentyl) amino-1-hydroxypropane-1,1-diphosphonic acid monosodium salt monohydrate]",thermodynamic stability,[1],thermodynamically more stable
same,solubility,[2],about 278 g/l
